In one assay the test system is Staphylococcus aureus. Also on record: method as in earlier work. Conditions: 6 vs 3, 7 vs 4; cited from earlier work.
The next assay deals with MDA-MB-468 cells. Conditions: read-out: IC50 against MDA-MB-468 cells; cited from earlier work.
Assay [1] has as its system Streptomyces sp. SCSIO 1666 WT. Nature of the assay: Growth inhibition zone assay. The format is cell-based. Conditions: WT producer, paper discs impregnated with compound, 1 μg. The source says: (§1) We also noted that the ∆cytA mutant strain accumulated small amounts (80~100-fold lower than WT producer) of the immediate biosynthetic precursors of cosmomycins A (3) and B (4). The in vitro antimicrobial activities of compounds 1–13 against a panel of gram-positive bacteria (Table 2) provided some insight into the possible physiological significance of CytA-catalyzed reductions. Furthermore, we had observed that the ΔcytA mutant strain is clearly impaired relative to the WT strain upon addition of 6 or 7 as potential substrates. To evaluate this effect, we probed the sensitivity of Streptomyces sp. SCSIO 1666 to 6 and 7 in an inhibition zone assay (Fig. 3). A clear inhibition zone (16 mm) using the ΔcytA mutant plate was observed when supplemented with 1 μg of 6 or 7. […] That CytA production endows cosmomycin resistance provides strong evidence that the cytA gene directly confers Streptomyces. sp. SCSIO 1666 with the ability to protect itself from the effects by self-resistance to cosmomycins C and D.
(§2) Fig. 3 Sensitivity of Streptomyces sp. SCSIO 1666 toward cosmomycin C (6) and cosmomycin D (7) (1 μg) as determined by growth inhibition zone assays. […] TEXT PRINTED IN THE PICTURE: 6: ΔcytA mutant strain: 16 mm DOUBTS OF THE COPYIST ABOUT THIS PICTURE: 6, ΔcytA mutant strain: the small yellow print reads 16 mm, but it could be 15 or 18 mm / 6: the yellow double arrow marked 16 mm spans the zone around disc 6. The picture prints no measure name, so it may be the inhibition zone diameter or only a scale mark

In assay [2] the test system is Streptomyces sp. SCSIO 1666 ΔcytA mutant strain. Nature of the assay: Growth inhibition zone assay. In kind it is cell-based. As to conditions: Streptomyces, read-out: inhibition zone.
Excerpt: as §1, §2

We go through 2 compounds from article PMC6897945, “CytA, a reductase in the cytorhodin biosynthesis pathway, inactivates anthracycline drugs in Streptomyces” (Communications Biology, 2019).

The structures appear in SMILES notation.

Consider `CC[C@@]1(O)C[C@H](O[C@H]2C[C@H](N(C)C)[C@@H](O[C@H]3C[C@H](O)[C@@H](O[C@H]4CC[C@H](O)[C@H](C)O4)[C@H](C)O3)[C@H](C)O2)c2c(O)c3c(c(O)c2[C@H]1O[C@H]1C[C@H](N(C)C)[C@@H](O[C@H]2CC[C@H](O[C@H]4CC[C@H](O)[C@H](C)O4)[C@H](C)O2)[C@H](C)O1)C(=O)c1cccc(O)c1C3=O` [Compound 6, cosmomycin C], for which the “fold more active against Staphylococcus aureus than reduced congeners 3 and 4, respectively” value in the assay on Staphylococcus aureus was > 100 fold. In addition, in the assay with MDA-MB-468 cells, the IC50 is 210 nM. Also, the “growth inhibition near paper discs” value in assay [1] is on record as “little to no growth inhibition”. Besides, the zone of inhibition at 1 µg/disc in assay [2] came to 16 mm.
For `CC[C@@]1(O)C[C@H](O[C@H]2C[C@H](N(C)C)[C@H](O[C@H]3C[C@H](O)[C@H](O[C@H]4CC[C@H](O)[C@H](C)O4)[C@H](C)O3)[C@H](C)O2)c2c(O)c3c(c(O)c2[C@H]1O[C@H]1C[C@H](N(C)C)[C@H](O[C@H]2C[C@H](O)[C@H](O[C@H]4CC[C@H](O)[C@H](C)O4)[C@H](C)O2)[C@H](C)O1)C(=O)c1cccc(O)c1C3=O` [Compound 7, cosmomycin D], the “fold more active against Staphylococcus aureus than reduced congeners 3 and 4, respectively” value in the assay with Staphylococcus aureus is recorded as > 100 fold. The “growth inhibition near paper discs” value in assay [1] is on record as “little to no growth inhibition”. Besides, in assay [2], the zone of inhibition at 1 µg/disc is 16 mm.
